Converted amounts (≈) assume the structure as drawn. Where two headings read alike, the source gives them in different places. Values belong to the compound of their own block, whether it stands above or below them.
What was measured:
[1] = Solubility of cyclic peroxide compounds and derivatives thereof
Excerpt: As to 6-(1,2,6,7-tetraoxaspiro[7.11]nonadecy-4-yl)hexane-1-ole (N251), 5-(1,2,6,7-tetraoxaspiro[7.11]nonadecy-4-yl)pentane-1-carboxylic acid (N251-1), succinic acid mono-[6-(1,2,6,7-tetraoxaspiro[7.11]nonadecy-4-yl)hexyl]ester (N251-2), all obtained in Example 9, and 1,2,6,7-tetraoxaspiro[7.11]nonadecane (N89), artemisinin, artesunate (trade name: Guilin No. 2, Pharmaceutical Factory, Guangxi, China) as comparative examples, solubility to 5% of sodium bicarbonate water and dimethylsulfoxide (DMSO) was measured.

[2] = test system: mouse breast cancer-derived FM3A cells (F28-7 strain); assay: Growth inhibition test of mouse FM3A cells; format: cell-based; conditions: read-out: IC50 (M) Cancer cells of mice FM3A
Experimental: An F28-7 strain, a wild-type strain of mouse breast cancer-derived FM3A cells, was used. Immobilized fetal bovine serum was added to an ES medium such that the serum made up 2% of the medium, and culture was conducted in CO2 at a concentration of 5%, and at 37° C. […] Cells which had been precultured and entered to logarithmic growth phase were diluted to be 5×10^4 cells/ml in the medium. A sample prepared at the time of the measurement of antimalarial activity of P. falciparum was used. […] For each test sample, 2 to 3 experiments were conducted, and wells added with 10 μl each of sterilized water, DMF and DMSO were tested at the same time as controls. Next, a prepared suspension of cultured cells was added, by 990 to 995 μl each, and when medium and the like were added, the final concentration of test samples became 1×10^−4 to 1×10^−6M. By pipetting gently, these substances were uniformly suspended in media.
Based on the counted number of cells, growth rate was calculated by the following formula. Growth rate (%)={([C]−[A])/([B]−[A])}×100
A: the number of cells at the beginning
B: the number of cells in a control after 48 hours
C: the number of cells 48 hours after sample addition
Based on the calculated growth rate, IC50, cell growth inhibitory concentration, was calculated, and cytotoxicity of samples was evaluated as cell growth inhibitory activity.

[3] = test system: P. falciparum FCR-3 strain (ATCC30932); assay: Growth inhibition screening test of P. falciparum (FCR-3 strain); format: cell-based; conditions: read-out: EC50 (M) P. falciparum FCR-3
Experimental: (§1) A filter-sterilized RPMI1640 medium (pH 7.4) was added with human serum such that the serum made up 10% of the medium, and used in the experiment. P. falciparum were cultured in O2 at a concentration of 5%, CO2 at a concentration of 5% and N2 at a concentration of 90%, at a temperature of 36.5° C. Hematocrit value (ratio of volume of erythrocytes in erythrocyte suspension) was adjusted to be 5%, and initial infection rate of P. falciparum at the beginning of culture was adjusted to be 0.1%. A 24-well plate was used for culture and a medium was replaced everyday, and cultures were transferred at infection rate of 4%. A thin-layer smear was constructed and subjected to Giemsa staining or Diff-Qick staining, and followed by measurement under a microscope (oil immersion, 1000×), and then infection rate of P. falciparum was calculated according to the following formula. Infection rate of P. falciparum (%)={(number of infected erythrocytes)/(total number of erythrocytes)}×100 […]
(§2) Cultured erythrocytes infected with P. falciparum were gathered by centrifugation and washed with a medium containing serum, then noninfected erythrocytes were added, and initial infection rate was adjusted to be 0.3%. Hematocrit value in this case was 3%. […] These samples were dissolved into sterilized water, dimethylformamide (DMF) or dimethylsulfoxide (DMSO), and sample solutions at prescribed concentration were prepared. 5 to 10 μl each of the sample solutions was added to a 24-well culture plate. For each sample, 2 to 3 experiments were conducted. In addition, for control, sterilized water, DMF or DMSO was added by 10 μl/well. […] The culture plate was put into a CO2—O2—N2 (5%, 5%, 90%) incubator and culture was conducted for 72 hours, then a thin-layer smear was constructed for each well, Giemsa staining or Diff-Qick staining was conducted, followed by measurement under a microscope (oil immersion, 1000×), and then infection rates of P. falciparum in a group supplemented with a reagent and in controls were calculated. The growth rate was calculated according to the following formula based on the infection rate of P. falciparum as calculated above. Growth rate (%)={([b]−[a])/([c]−[a])}×100 […]
(§3) a: initial infection rate b: infection rate when sample solution added c: infection rate of a control
(§4) EC50 is a value expressed by molar concentration: when growth rate of control wherein sample solution is not added to a medium of P. falciparum is defined as 100%, EC50 indicates a concentration of a sample wherein infection rate of P. falciparum in control is inhibited by 50% due to the addition of sample solution.

[4] = test system: chloroquine-resistant malaria parasite of P. falciparum K-1 strain; assay: Growth inhibition screening test of chloroquine-resistant P. falciparum (K-1 strain); format: cell-based; conditions: read-out: EC50 (M) Chloroquine-resistant P. falciparum K1
Experimental: as §1, §2, §3, §4

[5] = test system: murine malaria parasites (P. berghei NK65 strain); assay: Parasite suppression test using mice infected with murine malaria parasite (4-day suppressive test); format: in vivo; conditions: for cure of infected mice / ED50 / ED90: mice infected with P. berghei NK65; for cure of infected mice: N251 and N89: with 50 mg/kg; for ED50 / ED90: once a day for 4 days, orally or intraperitoneally in olive oil; for ED50: 50% of parasites suppressed; for ED90: 90% of parasites suppressed
[6] = test system: P. falciparum versus mouse FM3A cells; assay: Assessment of drug efficacy (chemotherapeutic coefficient, selective toxicity against P. falciparum); format: cell-based; conditions: IC50 for mouse FM3A cells ÷ EC50 for P. falciparum (values fit FCR-3)
Experimental: Evaluation of antimalarial activity of samples was conducted on the basis of chemotherapeutic coefficient used as an index of selective toxicity against P. falciparum. Chemotherapeutic coefficient was calculated by the following formula as a ratio of EC50 value of each sample used for P. falciparum to IC50 value of each sample used for mouse FM3A cells, and drug efficacy was assessed based on the calculated values.
Chemotherapeutic coefficient=(IC50 value of the sample for mouse […] cells)÷(EC50 value of the sample for P. falciparum)

[7] = Mus musculus, FM3A cells, 48 hours culture, cell count, cytotoxicity
[8] = Plasmodium berghei, 96 h, read-out: ED50
[9] = Plasmodium falciparum, FCR-3 strain, 72 hours culture, infection rate by Giemsa or Diff-Qick staining
[10] = Plasmodium falciparum, K1 chloroquine-resistant strain, 72 hours culture

SMILES: O=C(O)CCCCCC1COOC2(CCCCCCCCCCC2)OOC1 [N251-1, 5-(1,2,6,7-tetraoxaspiro[7.11]nonadecy-4-yl)pentane-1-carboxylic acid]
solubility to 5% of sodium bicarbonate water ([1]; 5% of sodium bicarbonate water): 50 mg/mL

solubility ([1]; aqueous buffer): 100 mg/mL (≈ 260 mM)
SMILES: C[C@H]1[C@H](OC(=O)CCC(=O)O)O[C@@H]2O[C@@]3(C)CC[C@H]4[C@H](C)CC[C@@H]1[C@@]24OO3 [artesunate]

SMILES: CCN(CC)CCCC(C)Nc1ccnc2cc(Cl)ccc12 (centres unmarked) [Chloroquine, chloroquine]
IC50 ([2]; Mus musculus, FM3A, 48 h): 3.2e-05 M
EC50 ([3]; Plasmodium falciparum, 72 h): 1.8e-08 M
EC50 ([4]; Plasmodium falciparum, K1, 72 h): 1.3e-07 M

SMILES: O=C(O)CCC(=O)OCCCCCCC1COOC2(CCCCCCCCCCC2)OOC1 [N251-2, succinic acid mono-[6-(1,2,6,7-tetraoxaspiro[7.11]nonadecy-4-yl)hexyl]ester]
solubility to 5% of sodium bicarbonate water [1]: 100 mg/mL

SMILES: OCCCCCCC1COOC2(CCCCCCCCCCC2)OOC1 [N251, 6-(1,2,6,7-tetraoxaspiro[7.11]nonadecy-4-yl)hexane-1-ole]
IC50 ([2]; FM3A cells, 48 hours culture, cell count, cytotoxicity): 8e-06 M
ED50 (mg/kg) on N89 basis ([5]; ED50 of N251 converted to N89 basis (molar comparison)): [<7 on N89 basis] mg/kg
ED90 (mg/kg) on N89 basis ([5]; ED90 of N251 converted to N89 basis (molar comparison)): [13 on N89 basis] mg/kg
cure of infected mice [5]: All cured
ED50 [5]: <10 mg/kg
ED90 [5]: 18 mg/kg
EC50 ([3]; FCR-3 strain, 72 hours culture, infection rate by Giemsa or Diff-Qick staining): 2.3e-08 M
IC50/EC50 Chemotherapeutic coefficient [6]: 348
solubility to DMSO [1]: insoluble
EC50 ([4]; K1 chloroquine-resistant strain, 72 hours culture): 2e-08 M

EC50 [3, 9]: 1e-08 M
solubility to DMSO [1]: insoluble
SMILES: C[C@@H]1CC[C@H]2[C@@H](C)C(=O)O[C@@H]3O[C@@]4(C)CC[C@@H]1[C@]32OO4 [Artemisinin, artemisinin]
IC50 [2, 7]: 1e-05 M
ED50 [5, 8]: 6 mg/kg
cure of infected mice [5]: Not cured
ED90 [5]: 10.3 mg/kg
IC50/EC50 Chemotherapeutic coefficient [6]: 1000
EC50 [4, 10]: 1.3e-08 M

EC50 [3, 9]: 2.5e-08 M
solubility to DMSO [1]: insoluble
SMILES: C1CCCCCC2(CCCCC1)OOCCCOO2 [N89, 1,2,6,7-tetraoxaspiro[7.11]nonadecane]
IC50 [2, 7]: 8.2e-06 M
ED50 [5, 8]: 12 mg/kg
cure of infected mice [5]: All cured
ED90 [5]: 20 mg/kg
IC50/EC50 Chemotherapeutic coefficient [6]: 328
EC50 [4, 10]: 2.6e-08 M

Reference: patent US7407984B2, “Tetraoxaspriro anti-malarials” (Okayama University, priority 2002, dated 2008)
